{
  "source": "patent US20110256557A1",
  "about": "“IDENTIFYING PARATHYROID HORMONE AGONISTS AND ANTAGONISTS” (DISCOVERYBIOMED, INC., priority 2008, published 2011)",
  "molecules": {"B1": {"name": "LRP6N+T: truncated LRP6 containing the extracellular and transmembrane domains, tagged with VSVG (protein)", "chain": "APLLLYANRRDLRLVDATNGKENATIVVGGLEDAAAVDFVFSHGLIYWSDVSEEAIKRTEFNKTESVQNVVVSGLLSPDGLACDWLGEKLYWTDSETNRIEVSNLDGSLRKVLFWQELDQPRAIALDPSSGFMYWTDWGEVPKIERAGMDGSSRFIIINSEIYWPNGLTLDYEEQKLYWADAKLNFIHKSNLDGTNRQAVVKGSLPHPFALTLFEDILYWTDWSTHSILACNKYTGEGLREIHSDIFSPMDIHAFSQQRQPNATNPCGIDNGGCSHLCLMSPVKPFYQCACPTGVKLLENGKTCKDGATELLLLARRTDLRRISLDTPDFTDIVLQLEDIRHAIAIDYDPVEGYIYWTDDEVRAIRRSFIDGSGSQFVVTAQIAHPDGIAVDWVARNLYWTDTGTDRIEVTRLNGTMRKILISEDLEEPRAIVLDPMVGYMYWTDWGEIPKIERAALDGSDRVVLVNTSLGWPNGLALDYDEGKIYWGDAKTDKIEVMNTDGTGRRVLVEDKIPHIFGFTLLGDYVYWTDWQRRSIERVHKRSAEREVIIDQLPDLMGLKATNVHRVIGSNPCAEENGGCSHLCLYRPQGLRCACPIGFELISDMKTCIVPEAFLLFSRRADIRRISLETNNNNVAIPLTGVKEASALDFDVTDNRIYWTDISLKTISRAFMNGSALEHVVEFGLDYPEGMAVDWLGKNLYWADTGTNRIEVSKLDGQHRQVLVWKDLDSPRALALDPAEGFMYWTEWGGKPKIDRAAMDGSERTTLVPNVGRANGLTIDYAKRRLYWTDLDTNLIESSNMLGLNREVIADDLPHPFGLTQYQDYIYWTDWSRRSIERANKTSGQNRTIIQGHLDYVMDILVFHSSRQSGWNECASSNGHCSHLCLAVPVGGFVCGCPAHYSLNADNRTCSAPTTFLLFSQKSAINRMVIDEQQSPDIILPIHSLRNVRAIDYDPLDKQLYWIDSRQNMIRKAQEDGSQGFTVVVSSVPSQNLEIQPYDLSIDIYSRYIYWTCEATNVINVTRLDGRSVGVVLKGEQDRPRAVVVNPEKGYMYFTNLQERSPKIERAALDGTEREVLFFSGLSKPIALALDSRLGKLFWADSDLRRIESSDLSGANRIVLEDSNILQPVGLTVFENWLYWIDKQQQMIEKIDMTGREGRTKVQARIAQLSDIHAVKELNLQEYRQHPCAQDNGGCSHICLVKGDGTTRCSCPMHLVLLQDELSCGEPPTCSPQQFTCFTGEIDCIPVAWRCDGFTECEDHSDELNCPVCSESQFQCASGQCIDGALRCNGDANCQDKSDEKNCEVLCLIDQFRCANGQCIGKHKKCDHNVDCSDKSDELDCYPTEEPAPQATNTVGSVIGVIVTIFVSGTVYFI", "modifications": "left off: small tags and cut ends", "notes": "truncated LRP6 containing the extracellular and transmembrane domains, tagged with VSVG"}},
  "key": {"[1]": {"system": "luciferase reporter bearing TCF/LEF binding elements", "test": "TCF/LEF luciferase reporter assay in UMR-106 cells", "assay_type": "cell-based, rat", "source_text": "HEK293, UMR-106 and mouse embryonic fibroblast (MEF) cells were maintained in Dulbecco's Modified Eagle Medium (DMEM) with 10% Fetal Calf Serum (FCS). Mouse Wnt3a conditioned medium (Wnt3a CM) was produced from mouse L cells stably transfected with mouse Wnt3a (American Type Culture Collection; Manassas, Va.) and control conditioned medium (Control CM) was from non-transfected L cells. IgG, LRP6N-IgG, DKK1, Sclerostin, VSVG-LRP6N and Myc-Fz8CRD conditioned media were produced from HEK 293 cells transfected with the individual plasmids. Transfections were carried out using lipofectamine reagent (Invitrogen; Carlsbad, Calif.). Luciferase assays were carried out in either UMR-106 or HEK 293 cells as described previously (Wan et al., Am. J. Pathol. 166:1379-92 (2005)), with 0.3 μg of TCF-Luc reporter plasmid plus 50 ng of Renilla luciferase plasmid (internal control) per well in the 12-well plate. Experiments were repeated at least three times with triplicate for each experiment."}, "β-catenin": {"system": "β-catenin", "test": "Western blot of cytosolic β-catenin in UMR-106 cells", "assay_type": "cell-based, rat", "experimental": "(§1) Cells were harvested in cavitation buffer (5 mM HEPES, pH 7.4, 3 mM MgCl2, 1 mM EGTA, 250 mM sucrose) containing protease and phosphatase inhibitors and homogenized by nitrogen cavitation (200 p.s.i., for 5 minutes) in a cell disruption bomb (Parr Instrument Co.; Moline, Ill.). The cell homogenate was centrifuged twice at 700 g for 10 minutes to pellet the nuclei. The supernatant was further centrifuged at 100,000 g (Beckman SW50.1 rotor) for 1 hour to separate the membrane and cytosol fractions, and the resulting membrane pellet was washed three times with cavitation buffer before use in the assays (Zhang et al., Biochem. J. 343:541-9 (1999)). Immunoprecipitation and Western blot analysis of cell lysates were performed as described previously (Wan et al., Am. J. Pathol. 166:1379-92 (2005))."}, "axin-LRP6 binding": {"system": "axin-LRP6 binding", "test": "Co-IP of axin binding to LRP6 in HEK293 cells", "assay_type": "cell-based", "experimental": "as §1"}, "LRP6": {"system": "LRP6", "test": "LRP6 phosphorylation at PPPSP motifs, western blotting with Ab1490, UMR-106 cells", "assay_type": "cell-based, rat", "details": "cells not given", "experimental": "as §1\nAs phosphorylation of LRP6 at the PPPSP motifs plays a crucial role in activating downstream β-catenin signaling by Wnt, whether PTH induces phosphorylation of LRP6 at PPPSP motifs (Mao et al., Mol. Cell. 7:801-9 (2001); Tamai et al., Mol. Cell. 13:149-56 (2004); Davidson et al., Nature 438:867-72 (2005); Zeng et al., Nature 438:873-7 (2005)). Immunoprecipitated LRP6 from extracts of PTH-treated UMR-106 cells were monitored for their phosphorylation, by western blotting, with an antibody that recognizes phosphorylated PPPSP motifs (Ab1490) (Tamai et al., Mol. Cell. 13:149-56 (2004)). […] Phosphorylation of PPPSP motifs is required for axin recruitment from cytoplasm to LRP6 at cell membrane. […] Fz8CRD, a competitive inhibitor of the Wnt receptor Fz (Hsieh et al., Proc. Natl. Acad. Sci. USA 96:3546-55 (1999)), was used to exclude the possibility that these PTH effects are mediated through promotion of Wnts production or sensitization of Wnt-stimulated signaling. […] In contrast, LRP6N blocked PTH-stimulated LRP6 phosphorylation (FIG. 33)."}, "β-catenin in osteoblasts": {"system": "β-catenin in osteoblasts", "test": "Immunohistochemistry of β-catenin in bone sections after single-dose injection, rats", "assay_type": "in vivo, rat", "details": "for positive staining of β-catenin in osteoblasts: five month-old rats, single i.v. dose 40 μg/kg, 8 hours after injection", "experimental": "For the experiments in which rats or mice were administered PTH as single-dose injection, five-month-old male Sprague Dawley rats (Charles River Laboratories; Wilmington, Mass.) or two-month-old male C57BL/J6 mice (Jackson Laboratory; Bar Harbor, Me.) (6 per group) were administered a single dose of either vehicle (1 mM acetic acid in sterile PBS) or PTH (1-34) (Bachem Inc.; Torrance, Calif.) at 40 μg/kg in a volume of 100 μl. In the mouse model, mouse recombinant Wnt3a (R&D Systems; Minneapolis, Minn.) was injected at 25 μg/kg in a volume of 100 μl. All treatments were through bolus intravenous injection via the tail vein. Rats/mice were sacrificed at 0.5, 2, 8 and 24 hours after injection.\nFormalin-fixed femur or tibia tissue sections of 5 μm thickness from rats or mice were processed with antigen retrieval and hydrogen peroxide treatment prior to incubation with primary monoclonal antibody specific for β-catenin (BD Biosciences; San Jose, Calif.), goat polyclonal antibody sclerostin (R&D Systems; Minneapolis, Minn.) or rabbit polyclonal phosphorylated LRP6 (Ab1490) for 1 hour at room temperature or overnight at 4° C. Negative controls were obtained by replacing the primary antibodies with irrelevant control isotype IgG. […] In the rat model, numbers of total osteoblasts and numbers of β-catenin- or p-LRP6-positive osteoblasts were counted in three random high power fields at metaphysis subjacent to the epiphyseal growth plates or the diaphyseal hematopoietic bone marrow per specimen, and a total of six specimens in each group were used. In the mouse model, numbers of total osteoblasts and numbers of β-catenin-positive osteoblasts were counted in three random high power fields in a 2-mm square, 1 mm distal to the lowest point of the growth plate in the secondary spongiosa. Numbers of total osteocytes and numbers of sclerostin-positive osteocytes were counted in three random high power fields per trabecular bone section or cortical bone section, and a total of six specimens in each group were used."}, "PTH1R": {"biological_target": "T1, PTH1R (Homo sapiens, UniProt Q03431)", "T1 sequence (Q03431 27-593)": "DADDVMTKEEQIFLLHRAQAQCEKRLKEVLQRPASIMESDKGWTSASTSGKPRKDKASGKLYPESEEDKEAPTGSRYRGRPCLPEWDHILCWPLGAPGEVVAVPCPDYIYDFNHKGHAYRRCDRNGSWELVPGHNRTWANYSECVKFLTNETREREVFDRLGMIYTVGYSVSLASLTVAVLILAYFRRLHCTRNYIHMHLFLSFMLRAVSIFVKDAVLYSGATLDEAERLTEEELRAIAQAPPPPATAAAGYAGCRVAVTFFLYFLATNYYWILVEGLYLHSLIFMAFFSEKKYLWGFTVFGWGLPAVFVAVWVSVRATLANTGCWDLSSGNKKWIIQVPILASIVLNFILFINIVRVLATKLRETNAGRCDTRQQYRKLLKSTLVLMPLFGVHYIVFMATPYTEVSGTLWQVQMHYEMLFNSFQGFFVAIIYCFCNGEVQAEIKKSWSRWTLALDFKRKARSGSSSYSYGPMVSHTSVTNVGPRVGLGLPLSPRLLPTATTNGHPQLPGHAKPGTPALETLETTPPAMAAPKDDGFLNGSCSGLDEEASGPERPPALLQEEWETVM", "test": "Co-immunoprecipitation of exogenous LRP5/LRP6 constructs with PTH1R in HEK293 cells", "assay_type": "cell-based", "details": "co-expressed with PTH1R in HEK293 cells", "source_text": "PTH1R tagged with HA was subcloned into pcDNA3.1. cDNAs from human LRP5 (Mao et al., Mol. Cell. 7:801-9 (2001)) and LRP6 (Tamai et al., Nature 407:530-35 (2000)) tagged with HA and VSVG were subcloned into pCMV and pCS2^+, respectively. LRP6N+T (LRP6 N-terminal plus the transmembrane domain) and LRP6T+C (LRP6 transmembrane domain plus C-terminal) tagged with VSVG were subcloned into pCS2^+. LRP6N+1479m, LRP6N+1490m, LRP6N+1493m and LRP6N+1496m were generated by mutagenesis of either the serine (at amino acid 1490 or amino acid 1496) or threonine (at amino acid 1479 or amino acid 1493) to alanine LRP6N-IgG was generated by fusing the LRP6 extracellular domain with IgG (Tamai et al., Nature 407:530-35 (2000)). si-GFP (Wan et al., Am. J. Pathol. 166:1379-92 (2005)) and si-LRP6 plasmids were generated using a BS/U6 vector. Briefly, a 22-nucleotide oligo (oligo 1) corresponding to nucleotides 2981 to 3002 of the human LRP6 coding region was first inserted into the BS/U6 vector digested with ApaI (blunted) and HindIII. The inverted motif that contains the six-nucleotide spacer and five Ts (oligo 2) was then subcloned into the HindIII and EcoRI sites of the intermediate plasmid to generate BS/U6/LRP5/6.\nas §1"}},
  "data": [
    {"molecule": "PTH (39-84): C-terminal fragment of PTH; binds PTH1R but does not activate PKA (APLAPRDAGSQRPRKKEDNVLVESHEKSLGEADKADVNVLTKAKSQ; Parathyroid hormone; UniProt P01270 70-115, looked up, fragment)", "values": [
      {"measurement": "activating β-catenin signaling (TCF4/LEF luciferase) compared with PTH (1-84)", "setting": "[1]; UMR-106 cells", "result": "much less effective than PTH (1-84)"},
      {"measurement": "altering the stability of β-catenin compared with PTH (1-84)", "setting": "β-catenin", "result": "much less effective than PTH (1-84)"},
      {"measurement": "inducing axin-LRP6 binding compared with PTH (1-84)", "setting": "axin-LRP6 binding", "result": "much less effective than PTH (1-84)"}
    ]},
    {"molecule": "O=S(=O)(NCCNC/C=C/c1ccc(Br)cc1)c1cccc2cnccc12", "note": "[H89]", "values": [
      {"measurement": "effect on Wnt3a-stimulated β-catenin-dependent transcription activity (TCF4/LEF luciferase)", "setting": "[1]; UMR-106 cells", "result": "did not affect"},
      {"measurement": "effect on PTH-stimulated TCF/LEF luciferase (transcriptional) activity", "setting": "[1]; UMR-106 cells treated with PTH", "result": "reduced"},
      {"measurement": "effect on PTH-induced β-catenin stabilization", "setting": "β-catenin", "result": "reduced"},
      {"measurement": "effect on Wnt3a-stimulated β-catenin stabilization", "setting": "β-catenin", "result": "did not affect"},
      {"measurement": "effect on Wnt3a-stimulated LRP6 phosphorylation", "setting": "LRP6", "result": "did not affect"},
      {"measurement": "effect on binding of axin to LRP6 in cells treated with PTH", "setting": "axin-LRP6 binding; PTH-treated cells", "result": "reduced"}
    ]},
    {"molecule": "PTH (1-34): C-terminal-truncated synthetic analog of PTH with an anabolic effect on bone formation in humans (SVSEIQLMHNLGKHLNSMERVEWLRKKLQDVHNF; Parathyroid hormone; UniProt P01270 32-65, looked up, fragment)", "values": [
      {"measurement": "positive staining of β-catenin in osteoblasts", "setting": "β-catenin in osteoblasts; diaphyseal bone marrow", "result": "about 90.24±0.68%"},
      {"measurement": "positive staining of β-catenin in osteoblasts", "setting": "β-catenin in osteoblasts; metaphysis subjacent to the epiphyseal growth plates", "result": "99.08±0.57", "unit": "%"},
      {"measurement": "expression of β-catenin in preosteoblasts and osteoblasts on the bone surface", "setting": "β-catenin in osteoblasts; rats, single dose, trabecular bone, within hours", "result": "induced"}
    ]},
    {"molecule": "B1", "values": [
      {"measurement": "binding of LRP6 construct to PTH1R (IP assay)", "setting": "PTH1R", "result": "associated with PTH1R as effectively as did full-length LRP6"}
    ]}
  ]
}
